Measured values reported in patent US7579006B2, “Method of treating immune pathologies with low dose estrogen” (Oregon Health and Science University, priority 2000, dated 2009).

System: spinal cord mRNA
Assay: RNAse protection assay of spinal cords of wildtype and cytokine knockout mice with EAE
Format: in vivo
Method: RNAse protection assay. Chemokine, chemokine receptor and cytokine mRNAs were detected by RPA essentially as described in Example III, except that analysis was performed on 20 μg total RNA.
Estrogen treatment reduces chemokine and chemokine receptor mRNA expression in the CNS. The egress of inflammatory cells into the CNS is a critical first step in the development of EAE. Chemokines are low molecular weight chemotactic molecules that are thought to play an important role in the migration and retention of immunocompetent cells in the CNS. The influence of E2 treatment on chemokine and chemokine receptor mRNA in the spinal cords of WT and cytokine deficient mice was measured using the RNAse protection assay (RPA). Total RNA was purified from spinal cords collected from mice at the peak of EAE (day 12-16 post-immunization) and chemokine/chemokine receptor specific mRNA was detected using radiolabeled riboprobes. mRNAs coding for many of the chemokine and receptor family members were detectable in the spinal cords of WT C57BL/6 mice with EAE (FIG. 18). RANTES and IP-10 were expressed at the highest levels, followed by MIP-1α, MIP-2 and MCP-1. The levels of TCA-3 mRNA were below the limits of detection for this assay. […]
The expression of cytokine mRNA in the spinal cords of mice at the peak of EAE (day 12-16 post-immunization) was measured by RPA analysis. […]

## C[C@]12CC[C@@H]3c4ccc(O)cc4CC[C@H]3[C@@H]1CC[C@@H]2O [17β-estradiol]
C57BL/6 and cytokine knockout mice, except LT-β in IFN-γ deficient mice
  levels of LT-β, TNF-α and IFN-γ mRNA in spinal cords: significantly reduced
WT and cytokine deficient mice, 2.5 mg pellet
  expression of all chemokine and chemokine receptor mRNA in spinal cord: significantly diminished or absent
